Assay type in all cases: cell-based
Assay [1] relates to Mycoplasma gallisepticum S6 (standard strain). Description: Anti-mycoplasma activity in vitro (MIC, broth dilution), strain S6. Particulars: Mg S6, 37° C., 7 days. Here is the method: (§1) (1) Anti-mycoplasma activity test in vitro
(§2) MIC values of each of Tropolones were measured on the following strains according to the following method.
(§3) (a) Mycoplasma gallisepticum
(§4) Medium: Chick PPLO broth supplemented with 20% equine serum (Eiken Kagaku Co., Ltd.)
(§5) Method: Broth dilution method
(§6) Inoculum: Culture incubated at 37° C. for 24-48 hr which is diluted with broth to 10^6 CCU/ml immediately before the use.
(§7) To 1.6 ml of the broth is added 0.2 ml of an agent which has been subjected to 2-fold dilution and then added 0.2 ml of inoculum, which is incubated at 37° C. for 7 days.

The test system of assay [2] is Mycoplasma gallisepticum T-7-T (wild strain, tylosin-resistant). Description: Anti-mycoplasma activity in vitro (MIC, broth dilution), strain T-7-T. Particulars: Mg T-7-T, 37° C., 7 days. How it is done: as §1, §2, §3
T-7-T (wild strain, tylosin-resistant)
as §4, §5, §6, §7
For orientation: Dilution methods test growth across graded concentrations, often in twofold steps.

Assay [3] concerns Mycoplasma gallisepticum MR-1 (wild strain, tylosin-resistant). The experiment in a line: Anti-mycoplasma activity in vitro (MIC, broth dilution), strain MR-1. Particulars: Mg MR-1, 37° C., 7 days. How it is done: as §1, §2, §3
MR-1 (wild strain, tylosin-resistant)
as §4, §5, §6, §7

For assay [4], the system named is Mycoplasma hyopneumoniae ST-11 (standard strain). Description: Anti-mycoplasma activity in vitro (MIC, broth dilution), strain ST-11. Particulars: Mh ST-11. How it is done: as §1, §2
(b) Mycoplasma hyopneumoniae
Strain: ST-11 (standard strain)
Medium: 850 ml of Hanks' solution supplemented with 0.5% lactoalbumin, 50 ml of 25% yeast, 100 ml of equine serum and 4-6 ml of 0.5% phenol red (pH 7.4-7.6)
as §5
Inoculum: Culture which is incubated for 3-4 days and diluted 10 times with the broth if color of the broth becomes yellow then. If it needs over 4 days until color of the broth becomes yellow, it is further subcultured. This is diluted 10 times with the broth to give inoculum.
Assay is done in the same manner as in the above (a).

Setting [5] is: Mycoplasmoides gallisepticum, 168 h, read-out: MIC.
[6] abbreviates: Mesomycoplasma hyopneumoniae, read-out: MIC.

In brackets after ≈: the same amount, converted by molar mass. Structures can show the parent of a compound that is named as a salt. Where two headings read alike, the source gives them in different places.

In general, MIC refers to the least concentration at which growth counts as inhibited. `O=c1cccccc1[O-].O=c1cccccc1[O-].[Ni+2]` [Compound 4, Tropolone nickel complex]: the minimum inhibitory concentration (MIC) was determined as 1.56 µg/mL in assay [1], 3.13 µg/mL in assay [2], 3.13 µg/mL in assay [3] and 0.78 µg/mL in assay [4].

Regarding `O=c1cccccc1O` [Compound 6, Tropolone magnesium salt], the minimum inhibitory concentration (MIC) in assay [1] was found to be 1.56 µg/mL; in assay [2] it was 1.56 µg/mL; in assay [3], 1.56 µg/mL; in assay [4], 0.78 µg/mL.

Turning to `O=c1cccccc1O` [Compound 8, Tropolone sodium salt], the MIC stood at 1.56 µg/mL in assay [1] (sodium salt), 1.56 µg/mL in assay [2] (sodium salt), 1.56 µg/mL in assay [3] (sodium salt) and 0.78 µg/mL in assay [4] (sodium salt).

Take `O=c1cccccc1O` [Compound 10, Tropolone n-propylamine salt]: the MIC in assay [1] is 3.13 µg/mL; in assay [2], 3.13 µg/mL; in assay [3], 3.13 µg/mL; in assay [4], 0.78 µg/mL.

In the case of `O=C(Oc1cccccc1=O)c1ccccc1` [Compound 14, O-Benzoyltropolone], the MIC in assay [1] (setting [5]) was found to be 6.25 µg/mL (≈ 27.6 µM); in assay [2] (setting [5]), 6.25 µg/mL (≈ 27.6 µM); in assay [3] (setting [5]) it was 6.25 µg/mL (≈ 27.6 µM); in assay [4] (setting [6]) it was 0.78 µg/mL (≈ 3.45 µM).

`N#CSc1cccccc1=O` [Compound 15, 2-Thiocyanatotropone]: the minimal inhibitory concentration (MIC) worked out at 6.25 µg/mL (≈ 38.3 µM) in assay [1] (setting [5]), 6.25 µg/mL (≈ 38.3 µM) in assay [2] (setting [5]), 12.5 µg/mL (≈ 76.6 µM) in assay [3] (setting [5]) and 0.39 µg/mL (≈ 2.39 µM) in assay [4] (setting [6]).

On to `O=c1c(O)ccccc1O` [Compound 27, 7-Hydroxytropolone], for which the minimal inhibitory concentration (MIC) in assay [1] (setting [5]), in assay [2] (setting [5]), in assay [3] (setting [5]) and in assay [4] (setting [6]) was 12.5 µg/mL (≈ 90.5 µM) in each case.

Regarding `Cc1ccccc(O)c1=O` [Compound 28, 7-Methyltropolone], the MIC is 0.1 µg/mL (≈ 0.734 µM) in assay [1] (setting [5]), 0.39 µg/mL (≈ 2.86 µM) in assay [2] (setting [5]), 0.2 µg/mL (≈ 1.47 µM) in assay [3] (setting [5]) and 0.1 µg/mL (≈ 0.734 µM) in assay [4] (setting [6]).

Tropolone cobalt complex [Compound 3]: the MIC in assay [1] stood at 1.56 µg/mL; in assay [2], 1.56 µg/mL; in assay [3] it was 3.13 µg/mL; in assay [4], 0.78 µg/mL.

For the compound Tropolone iron complex [Compound 1], the minimum inhibitory concentration (MIC) turned out to be 0.78 µg/mL in assay [1], 0.78 µg/mL in assay [2], 0.56 µg/mL in assay [3] and 0.39 µg/mL in assay [4].

For the compound Tropolone zinc salt [Compound 7], the minimal inhibitory concentration (MIC) in assay [1] was determined as 1.56 µg/mL; in assay [2] it was 3.13 µg/mL; in assay [3], 3.13 µg/mL; in assay [4], 0.78 µg/mL.

The values above are taken from patent US4950686A, “Anti-mycoplasma agent” (Shionogi & Co., Ltd., priority 1986, dated 1990).
